Measurements published in US6545033B1, “Fused 1-(2,6-dichloro-4-trifluoromethylphenyl)-pyrazoles, the synthesis thereof and the use thereof as pesticides” (3-Dimensional Pharmaceuticals, Inc., priority 1999, dated 2003).

Key:
[1] = tested on: houseflies (Musca domestica); test: In vivo housefly contact assay; details: contact in coated glass test tube, about 24 hours; mM = concentration of the DMSO solution, about 1 μL applied
Procedure: This example describes an in vivo assay to screen compounds for their ability to kill houseflies via contact. Newly emerged houseflies (Musca domestica, available from Rincon-Vitova Insectaries, Inc., Ventura, Calif.) were sedated with carbon dioxide gas, collected in 50 mL polypropylene conical tubes containing filter paper saturated with 10% (w/w) sucrose in water, and allowed to feed at room temperature for about 2-4 hours. Test compounds were dissolved as in dimethylsulfoxide (DMSO) at concentrations ranging from about 0.05 mM to about 100 mM. About 1 μL of dissolved test compound and about 100 μL of isopropanol were dispensed into the bottom of a 9 mL screw-top glass test tube. Positive control test tubes were prepared in the same manner except that no test compounds were dissolved in the DMSO. Each test tube was rolled to coat the sides with the chemical solution, and allowed to air dry 24-48 hours. About 20 houseflies were sedated by refrigeration at 0-4° C. and transferred to each test tube. Each test tube was sealed with organdy cloth secured by an open top screw cap and laid horizontally in the dark. After about 24 hours, the healthy, moribund, and dead houseflies in each test tube were counted. The percentage of dead houseflies in each test tube was then calculated using the formula M=100(D−(FC/100))/(F−(FC/100)), in which M is the percentage of dead houseflies due to the addition of the test compound, D is the number of dead houseflies in the test tube, F is the total number of houseflies in the test tube, and C is the percentage of dead houseflies in the control test tubes.

[2] = tested on: cat fleas (Ctenocephalides felis), CO Fleas; test: In vivo cat flea contact assay, CO fleas; details: contact with treated filter disk in vial, about 24-30 hours, mM = concentration of the DMSO solution, about 1 μL applied; for LC50: Ctenocephalides felis, topical, read-out: LD50 (mM), CO Fleas
Procedure: (§1) This example describes an in vivo assay to screen compounds for their ability to kill cat fleas via contact.
(§2) Test compounds were dissolved in dimethylsulfoxide (DMSO) at concentrations ranging from about 0.05 mM to about 100 mM. About 1 μL of dissolved test compound was dispensed onto a 6 mm (diameter) GF/C filter disk (filter material available from Whatman Inc., Clifton, N.J.) in the bottom of a 4 mL screw-top glass vial and allowed to air dry 24-48 hours. Positive control vials were prepared in the same manner except that no test compounds were dissolved in the DMSO. About 20 newly emerged cat fleas (Ctenocephalides felis) were sedated by refrigeration at 0-4° C. and transferred to each vial. Each vial was sealed with a thin, perforated Teflon™ septum secured by an open top screw cap and held vertically in the dark. After about 24-30 hours, the healthy, moribund, and dead cat fleas in each vial were counted. The percentage of dead cat fleas in each vial was then calculated using the formula M=100(D−(FC/100))/(F−(FC/100)), in which M is the percentage of dead cat fleas due to the addition of the test compound, D is the number of dead cat fleas in the test vial, F is the total number of cat fleas in the test vial, and C is the percentage of dead cat fleas in the control vials.

[3] = tested on: cat fleas (Ctenocephalides felis), NC Fleas; test: In vivo cat flea contact assay, NC fleas; details: contact with treated filter disk in vial, about 24-30 hours; mM = concentration of the DMSO solution, about 1 μL applied
Procedure: as §1, §2

Housefly GABA receptors = target: T1, Housefly GABA receptors (Musca domestica, UniProt Q75NA5); test: In vitro assay of binding to housefly GABA receptors (3H-EBOB displacement, housefly neuronal membranes); details: for Compounds with the most activity (housefly 3H-EBOB binding): housefly neuronal membranes
T1 sequence (Q75NA5 30-576): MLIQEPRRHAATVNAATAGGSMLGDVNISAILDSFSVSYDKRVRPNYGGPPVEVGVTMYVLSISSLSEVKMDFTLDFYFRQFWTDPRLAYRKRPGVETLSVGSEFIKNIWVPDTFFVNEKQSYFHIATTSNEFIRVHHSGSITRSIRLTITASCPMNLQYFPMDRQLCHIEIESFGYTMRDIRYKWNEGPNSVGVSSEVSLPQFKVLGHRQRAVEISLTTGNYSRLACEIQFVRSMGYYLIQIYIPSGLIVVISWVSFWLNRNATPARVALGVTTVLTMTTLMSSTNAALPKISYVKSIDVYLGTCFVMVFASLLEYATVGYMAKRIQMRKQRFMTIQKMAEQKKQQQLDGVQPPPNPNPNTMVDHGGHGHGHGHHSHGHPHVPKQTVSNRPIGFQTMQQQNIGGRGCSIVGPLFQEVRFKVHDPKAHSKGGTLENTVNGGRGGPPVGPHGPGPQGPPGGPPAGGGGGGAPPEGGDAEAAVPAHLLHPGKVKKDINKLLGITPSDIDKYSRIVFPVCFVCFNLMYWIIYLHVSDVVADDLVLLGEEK
Procedure: Newly emerged houseflies (Musca domestica, available from Rincon-Vitova Insectaries, Inc., Ventura, Calif.) were sedated with carbon dioxide gas, collected in 50 mL polypropylene conical tubes, and immediately frozen by submersion in liquid nitrogen. Unless specified, all of the following work was performed at 0-4° C. After removal from liquid nitrogen, the tubes of frozen houseflies were shaken vigorously by hand to decapitate the houseflies. […] Contaminating wings were removed by holding a vacuum nozzle approximately 4 cm above the heads, and contaminating legs were separated from the heads by passage through a #15 mesh screen. All remaining debris were removed from the pool of heads using forceps. The purified heads were collected in 50 mL polypropylene conical tubes and stored in liquid nitrogen until processed further.
About 13 g of purified housefly heads were suspended in about 65 mL of 10% sucrose buffer (10% sucrose (w/w) in 10 mM Tris, pH 7.5). The heads were homogenized for about 1 minute, using a Tissumizer™ homogenizer equipped with a SDT-100EN probe (available from Tekmar-Dohrmann, Cincinnati, Ohio) running at 70% of its maximum speed. The extract was further homogenized by about 5 passes through a 40 mL Dounce tissue grinder. The extract was then centrifuged at about 500×g for about 5 minutes to pellet large debris. The supernatant was collected; the pellet was washed with an additional 65 mL of 10% sucrose buffer and centrifuged at 500×g for about 5 minutes. The second supernatant was collected and combined with the first supernatant, and the pool was filtered through a 100μ CellMicroSieve™ mesh to remove residual debris (available from BioDesign of New York, Carmel, N.Y.).
Neuronal membranes containing active GABA receptors were collected via sucrose density centrifugation by the following method. About 8 mL of 35% sucrose buffer (35% sucrose (w/w) in 10 mM Tris, pH 7.5), were dispensed into each of six 38 mL ultracentrifuge tubes. These layers were overlaid with about 8 mL of 20% sucrose buffer (20% sucrose (w/w) in 10 mM Tris, pH 7.5), and finally overlaid with about 20 mL of filtered extract supernatant. The tubes were centrifuged at about 120,000×g for about 100 min at 4° C. After centrifugation, the 10% sucrose layer and most of the 20% sucrose layer were removed by aspiration. The membranes at the interface of the 20% sucrose and 35% sucrose layers were collected, pooled, diluted with 10% sucrose buffer, and centrifuged at about 120,000×g for about 40 min at 4° C. After centrifugation, the supernatant was discarded, and the pellets resuspended in about 6.5 mL of assay buffer (10 mM phosphate, 300 mM NaCl, pH 7.5) using a 10 mL Potter-Elvehjem tissue grinder with a Teflon® pestle. Protein concentration was determined by the Bio-Rad Protein Assay (available from Bio-Rad Laboratories, Hercules, Calif.) using bovine serum albumin as a standard. The membranes were aliquoted and stored in liquid nitrogen for up to 2 months before use.
Housefly neuronal membranes were prepared as described above from housefly heads. Test compounds were dissolved in dimethylsulfoxide (DMSO) at concentrations ranging from about 2 nM to about 100 mM. About 1 μL of a dissolved test compound was dispensed into a well of a 96-well polystyrene plate. About 100 μL of ice cold assay buffer (10 mM phosphate, 300 mM NaCl, pH 7.5) containing 5.2 nM 4′-Ethynyl-4-n-[2,3-^3H2]propylbicycloorthobenzoate (^3H-EBOB, 38 Ci/mmol, available from NEN Life Science Products, Boston, Mass.) was added to the well, followed by about 100 μL of ice cold assay buffer containing about 0.5-1.0 mg/mL housefly neuronal membranes. Control wells were prepared the same way except that the housefly neuronal membranes were omitted from the “negative” wells, and the test compounds were omitted from the “positive” wells. […]

[4] = target: Mouse Brain GABA Receptors; test: In vitro assay of binding to mouse brain GABA receptors (3H-EBOB displacement, mouse brain membranes); details: displacement of 5.2 nM 3H-EBOB, about 45 min at about 24° C.
Procedure: Mouse brains were obtained from carbon dioxide-asphyxiated Swiss-Webster mice, washed with phosphate-buffered saline, and used either fresh or after storage at −80° C. for up to 10 months. Unless specified, all preparation steps were performed at 0-4° C. For each preparation, 20 brains were suspended in about 40 mL of 0.32 M sucrose and homogenized for about 2 minutes, using a Tissumizer™ homogenizer equipped with a SDT-100EN probe (available from Tekmar-Dohrmann, Cincinnati, Ohio) running at 50% of its maximum speed. The extract was centrifuged for about 5 min at about 1000×g to pellet intact brain tissue. The supernatant was retained and the pellet washed with an additional 40 mL of 0.32 M sucrose and centrifuged at 1000×g for about 5 minutes. The 1000×g supernatants were combined and centrifuged at about 10,000×g for about 20 min to pellet membranes. The 10,000×g supernatant was discarded and the pellet was resuspended in about 20 mL of water containing 1 mM EDTA. The sample was dialyzed two times for about 3 hours each against about 3 L of water. The sample was then centrifuged at about 25,000×g for about 30 min to pellet the membranes. After centrifugation, the supernatant was discarded and the wet pellet recovered. The protein concentration of the pellet was determined by the Bio-Rad Protein Assay (available from Bio-Rad Laboratories, Hercules, Calif.) using bovine serum albumin as a standard. The membranes were aliquoted and stored at −80° C. for up to 6 months before use.
Mouse brain membranes were prepared as described above from dissected mouse brains. Test compounds were dissolved in dimethylsulfoxide (DMSO) at concentrations ranging from about 2 nM to about 100 mM. About 1 μL of a dissolved test compound was dispensed into a well of a 96-well polystyrene plate. About 100 μL of ice cold assay buffer (10 mM phosphate, 300 mM NaCl, pH 7.5) containing 5.2 nM 4′-Ethynyl-4-n-[2,3-^3H2]propylbicycloorthobenzoate (^3H-EBOB, 38 Ci/mmol, available from NEN Life Science Products, Boston, Mass.) was added to the well, followed by about 100 μL of ice cold assay buffer containing about 0.25-0.5 mg/mL mouse brain membranes. Control wells were prepared the same way except that the mouse brain membranes were omitted from the “negative” wells, and the test compounds were omitted from the “positive” wells. The samples were incubated for about 45 min at about 24° C. and then filtered on a 0.1% (w/v) polyethylenimine-soaked glass fiber Filtermat A (available from EG&G Wallac Inc., Gaithersburg, Md.) followed by four 100 mL rinses of cold assay buffer using a Harvester 96® cell harvester (available from Tomtec, Orange, Conn.). The filtermat was air dried and radioactivity bound to the filtermat was detected with either a 1450 MicroBeta® Trilux scintillation counter (available from EG&G Wallac Inc.) or a Topcount NXT™ scintillation counter (available from Packard Instrument Co., Meriden, Conn.) using standard methods.
Specific binding was considered to be the difference between total ^3H bound to the mouse brain membranes in the absence of any inhibitors and nonspecific ^3H bound to the mouse brain membranes upon the addition of 5 μM unlabeled EBOB. The average radioactivity contained in the “negative” wells was subtracted from each of the assay wells. […] Compounds that displaced ^3H-EBOB specifically bound to the mouse brain membranes were tested at 24-48 different final concentrations, varying from about 1 nM to about 125 μM, in order to determine the concentration at which 50% of the maximum inhibition due to the addition of that compound was observed (IC50). […]

O=S1(=O)Cc2cn(-c3c(Cl)cc(C(F)(F)F)cc3Cl)nc2C1 [3″, 2-[2,6-Dichloro-4-(trifuoromethyl)phenyl]-4,6-dihydrothieno-[3,4-c]pyrazole-5,5-dione]
LD50 (mM), Flies [1]: 5 mM
LD50 (mM), CO Fleas [2]: >100 mM
LD50 (mM), NC Fleas [3]: >100 mM

FC(F)(F)c1cc(Cl)c(-n2cc3c(n2)CCCC3)c(Cl)c1 [Compound 13, 2-[2,6-Dichloro-4-(trifluoromethyl)phenyl]-4,5,6,7-tetrahydro-2H-indazole]
Compounds with the most activity (housefly 3H-EBOB binding) (Housefly GABA receptors): most activity
LD50 (mM), Flies [1]: >100 mM
LC50 [2]: 37.5 mM
LD50 (mM), NC Fleas [3]: 20 mM

FC(F)(F)c1cc(Cl)c(-n2cc3c(n2)C2CCC3C2)c(Cl)c1 (stereo not shown) [Compound 35, 3,4-Diaza-4-[2,6-dichloro-4-(trifluoromethyl)phenyl]tricyclo-[5.2.1.0^2.6]deca-2,5-diene]
Compounds with the most activity (housefly 3H-EBOB binding) (Housefly GABA receptors): most activity
LD50 (mM), Flies [1]: 48 mM
LC50 [2]: 17 mM
LD50 (mM), NC Fleas [3]: 12 mM

FC(F)(F)c1cc(Cl)c(-n2cc3c(n2)CCC3(F)F)c(Cl)c1 [Compound 61, 2-[2,6-dichloro-4-(trifluoromethyl)phenyl]-4,4-difluoro-2,4,5,6-tetrahydrocyclopenta[c]pyrazole]
IC50 [4]: 1000 nM
LC50 [2]: 5 mM

CC1(O)c2cn(-c3c(Cl)cc(C(F)(F)F)cc3Cl)nc2C(F)C1F (stereo not shown) [Compound 88, 2-[2,6-Dichloro-4-(trifluoromethyl)phenyl]-5,6-difluoro-4-methyl-2,4,5,6-tetrahydrocyclopenta[c]pyrazol-4-ol]
IC50 (Housefly GABA receptors; displacement of 5.2 nM 3H-EBOB, housefly head neuronal membranes, about 45 min at about 24° C., read-out: IC50 (nM), Fly Head): 350 nM
LC50 [2]: 5 mM

FC1c2nn(-c3c(Cl)cc(C(F)(F)F)cc3Cl)cc2C(F)(F)C1F (stereo not shown) [Compound 89, 2-[2,6-Dichloro-4-(trifluoromethyl)phenyl]-4,4,5,6-tetrafluoro-2,4,5,6-tetrahydrocyclopenta[c]pyrazole]
IC50 [4]: 180 nM
LC50 [2]: < 0.5 mM

FC(F)(F)c1cc(Cl)c(-n2cc3c(n2)CC(F)(F)C3(F)F)c(Cl)c1 [Compound 92, 2-[2,6-Dichloro-4-(trifluoromethyl)phenyl]-4,4,5,5-tetrafluoro-2,4,5,6-tetrahydrocyclopenta[c]pyrazole]
IC50 [4]: 60 nM
LC50 [2]: < 0.5 mM
